Measured values from paper PMC3544154 (Nature communications, 2011).

Test system: neuroligin-1 induced synaptogenesis
Test: Synapse microarray coculture assay: NLG1-induced synapsin clustering
Format: cell-based, rat
Conditions: for activity in coculture assay / NLG1-induced synaptogenesis (in words): synapse microarray, no single concentration stated

SMILES | effect on NLG1-induced synaptogenesis (in words) (10 μM) | activity in coculture assay / NLG1-induced synaptogenesis (in words)
CCCC(CCC)C(=O)O [valproic acid] | neither of the two compounds, valproic acid and phenylbutyric acid, affected synaptogenesis | 
CCC(=O)CCCCC[C@@H]1NC(=O)[C@H]2CCCCN2C(=O)[C@H]([C@@H](C)CC)NC(=O)[C@H](Cc2cn(OC)c3ccccc23)NC1=O [apicidin] |  | greater potency than MS-275
Cc1[nH]c2ccccc2c1CCNCc1ccc(/C=C/C(=O)NO)cc1 [LBH-589] |  | potent
O=C(CCCCCN1C(=O)c2cccc3cccc(c23)C1=O)NO [scriptaid] |  | potent
